Data published in ChEMBL document CHEMBL1201862, “PubChem BioAssay data set” (2004).
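Interpolation was linear, between the two tested concentrations surrounding the appropriate level; five concentrations were tested over 48 hours in 96-well plates. At the GI50, growth is halved.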 Active and inactive are the calls of the source. No stated cut-off is given here; in the data, active = GI50 up to about 1.1 µM and inactive = higher.

Columns and labels:
Assay in all cases: DTP human tumour cell line panel, 48 h
[1] = tested on: HCT-116
[2] = tested on: Hs-578T
[3] = tested on: MDA-MB-435
[4] = tested on: MDA-N
[5] = tested on: RPMI-8226
[6] = tested on: SF-268
[7] = tested on: SF-295
[8] = tested on: SK-MEL-2
[9] = tested on: SK-MEL-5
[10] = tested on: SN12C
[11] = tested on: SNB-75
[12] = tested on: SR
[13] = tested on: U-251
[14] = tested on: UACC-62
[15] = tested on: CCRF-CEM
[16] = tested on: NCI-H23
[17] = tested on: HCC 2998

Measured: GI50

O=C(O)CN1C(=O)CN=C(c2ccccn2)c2cc(Cl)ccc21
inactive: [1] > 100 µM | [2] > 100 µM | [3] > 100 µM | [4] > 100 µM | [5] > 100 µM | [6] > 100 µM | [7] > 100 µM | [8] > 100 µM | [9] > 100 µM | [10] > 100 µM | [11] > 100 µM | [13] > 100 µM | [14] > 100 µM
active: [12] 0.547 µM

OC(c1ccccc1)(c1ccccc1)c1nccc2ccccc12
inactive: [15] 23.6 µM | [1] 27.9 µM | [2] 28.5 µM | [3] 30.8 µM | [4] 30.1 µM | [16] 20.8 µM | [5] 38.3 µM | [6] 44.2 µM | [7] 15.8 µM | [9] 14.1 µM | [10] 44.5 µM | [12] 37.8 µM | [13] 29.3 µM | [14] 21.5 µM

O=C1c2ccccc2C(=O)c2c(Nc3ccc4c5c(cccc35)C(=O)c3ccccc3-4)cccc21
inactive: [17] > 100 µM | [1] > 100 µM | [2] > 100 µM | [3] > 100 µM | [4] > 100 µM | [16] > 100 µM | [6] > 100 µM | [7] > 100 µM | [8] > 100 µM | [9] > 100 µM | [10] > 100 µM | [11] > 100 µM | [12] > 100 µM | [13] > 100 µM | [14] > 100 µM

CC(C)(C)OC/C=C1\C(=O)O[C@H]2C[C@@H](O[Si](C)(C)C(C)(C)C)C[C@@H]12
inactive: [15] 33.9 µM | [17] > 100 µM | [1] 26.4 µM | [3] 96.2 µM | [4] 90.4 µM | [16] 52.4 µM | [5] 46 µM | [6] > 100 µM | [7] 48.6 µM | [8] > 100 µM | [9] > 100 µM | [10] > 100 µM | [11] 63.7 µM | [12] 37.3 µM | [13] 83 µM

O=C(CCCN1CCC2(CC1)CC(=O)N(N1CCOCC1)C2=O)c1ccccc1
inactive: [15] > 100 µM | [17] > 100 µM | [1] > 100 µM | [3] 19.1 µM | [4] > 100 µM | [16] > 100 µM | [5] > 100 µM | [6] > 100 µM | [7] > 100 µM | [9] > 100 µM | [10] > 100 µM | [11] > 100 µM | [12] > 100 µM | [13] > 100 µM | [14] > 100 µM

O=C1c2c(Br)sc(Br)c2C(NC(=O)C(F)(F)F)C1O (stereo not drawn)
inactive: [15] 26.3 µM | [17] 18.2 µM | [1] 18.1 µM | [2] 32.8 µM | [3] 23.5 µM | [4] 19.1 µM | [16] 22.6 µM | [6] 34 µM | [7] 18.7 µM | [8] 16.7 µM | [9] 19.5 µM | [10] 18.7 µM | [11] 27.9 µM | [13] 19.5 µM | [14] 20.3 µM

CCOC(=O)c1c(-c2ccccc2)c(OC)cn1C
inactive: [15] > 10 µM | [17] > 10 µM | [1] > 10 µM | [2] > 10 µM | [3] > 10 µM | [4] > 10 µM | [16] > 10 µM | [5] > 10 µM | [6] > 10 µM | [7] > 10 µM | [8] > 10 µM | [9] > 10 µM | [10] > 10 µM | [11] > 10 µM | [13] > 10 µM | [14] > 10 µM

CC(=O)Nc1ccc(N2C(=O)/C(=C\c3cccc(Oc4ccccc4)c3)S(=O)(=O)C2c2ccccc2)cc1 (stereo not drawn)
inactive: [15] 27.7 µM | [17] > 100 µM | [1] 37.5 µM | [3] 60.8 µM | [4] 27.2 µM | [16] > 100 µM | [5] 20.4 µM | [7] 89.5 µM | [8] > 100 µM | [9] 57.5 µM | [10] 46.5 µM | [11] 81.3 µM | [12] 31.4 µM | [13] 39.3 µM | [14] 83.2 µM

O=C1Nc2ccc(Cl)cc2C(=O)N2CCC[C@@H]12
inactive: [17] > 100 µM | [1] > 100 µM | [3] > 100 µM | [4] > 100 µM | [16] > 100 µM | [5] > 100 µM | [6] > 100 µM | [7] > 100 µM | [8] > 100 µM | [9] > 100 µM | [10] > 100 µM | [11] > 100 µM | [12] > 100 µM | [13] > 100 µM | [14] > 100 µM

O=c1c(O)c(-c2ccccc2)oc2c(CP(=O)(O)O)cccc12
inactive: [15] > 100 µM | [17] > 100 µM | [1] > 100 µM | [3] > 100 µM | [4] > 100 µM | [16] > 100 µM | [7] > 100 µM | [8] > 100 µM | [9] > 100 µM | [10] > 100 µM | [12] > 100 µM | [13] > 100 µM | [14] > 100 µM

N#Cc1ccccc1C#C/C=C\C#Cc1ccccn1
inactive: [15] 36.5 µM | [17] 14.5 µM | [1] 12 µM | [2] 16.4 µM | [16] 12.3 µM | [6] 16.1 µM | [7] 20 µM | [8] 15 µM | [9] 2.99 µM | [10] 20.4 µM | [11] 24.8 µM | [12] 4.12 µM | [13] 18.5 µM | [14] 15.3 µM

[N-]=[N+]=CC(=O)CCC(=O)N(c1ccccc1)c1ccccc1
inactive: [15] > 10 µM | [1] > 10 µM | [3] > 10 µM | [4] > 10 µM | [16] > 10 µM | [6] > 10 µM | [7] > 10 µM | [8] 6.98 µM | [9] > 10 µM | [10] > 10 µM | [11] > 10 µM | [12] > 10 µM | [13] > 10 µM

CC(C)(C)OC(=O)NC(CSCc1ccc(C(=O)c2ccccc2)cc1)C(=O)N1CCN(CCCCN2c3ccccc3Sc3cc(N=[N+]=[N-])ccc32)CC1 (stereo not drawn)
inactive: [15] > 100 µM | [17] > 100 µM | [1] > 100 µM | [2] > 100 µM | [3] > 100 µM | [4] > 100 µM | [16] > 100 µM | [6] > 100 µM | [7] > 100 µM | [8] > 100 µM | [9] > 100 µM | [10] > 100 µM | [11] 58.7 µM | [13] > 100 µM | [14] > 100 µM

C=C1C(=O)O[C@@H]2[C@H]1C[C@@H](O)[C@H](C)[C@@](O)(C(=O)/C=C/C)[C@H]2OC(=O)C(C)CC (stereo partly drawn)
active: [15] 0.0428 µM
inactive: [17] 14.5 µM | [1] 1.84 µM | [2] 2.72 µM | [3] 3.29 µM | [4] 3.08 µM | [16] 5.31 µM | [5] 1.72 µM | [6] 15.4 µM | [7] 37.5 µM | [8] 22.5 µM | [9] 7.28 µM | [10] 2.64 µM | [11] 22.6 µM | [13] 11.2 µM | [14] 15.5 µM

c1ccc(CSC(SCc2ccccc2)c2ccc3c(c2)OCO3)cc1
inactive: [15] > 10 µM | [17] > 10 µM | [1] > 10 µM | [2] > 10 µM | [4] > 10 µM | [16] > 10 µM | [5] > 10 µM | [6] > 10 µM | [7] > 10 µM | [8] > 10 µM | [9] > 10 µM | [10] > 10 µM | [11] > 10 µM | [13] > 10 µM | [14] > 10 µM

COc1cc(CNC(=O)[C@H](Cc2ccc(O)cn2)NC(C)=O)cc(OC)c1
inactive: [15] > 100 µM | [17] > 100 µM | [1] 76.2 µM | [2] > 100 µM | [3] > 100 µM | [4] > 100 µM | [16] > 100 µM | [5] 29.5 µM | [6] > 100 µM | [7] > 100 µM | [8] > 100 µM | [9] 67 µM | [10] > 100 µM | [13] > 100 µM | [14] 80.9 µM

COC(=O)[C@]1(c2cc3ccccc3[nH]2)CC2CN(C(=O)OCc3ccccc3)C1C=C2OC (stereo partly drawn)
inactive: [15] 24.8 µM | [17] 21.5 µM | [1] 28.8 µM | [3] 20.7 µM | [4] 32.3 µM | [16] 40.7 µM | [5] 26.5 µM | [6] 37.2 µM | [7] 27.2 µM | [8] 17.5 µM | [10] 36.1 µM | [11] 23 µM | [13] 26.6 µM | [14] 16.8 µM

COc1ccc(-c2nnc3nc4ccccc4n3c2O)cc1
inactive: [15] > 100 µM | [17] > 100 µM | [1] > 100 µM | [2] > 100 µM | [3] > 100 µM | [4] > 100 µM | [16] > 100 µM | [6] > 100 µM | [7] 10 µM | [8] > 100 µM | [9] > 100 µM | [10] > 100 µM | [11] 41.9 µM | [13] 90.2 µM
